Results taken from ChEMBL document CHEMBL1201862, “PubChem BioAssay data set” (2004).
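Growth conditions: 96-well plates. Treatment: test compound, 48 hours, 5 concentrations. Analysis: linear interpolation between bracketing concentrations; unreached endpoints set to highest concentration. Here, GI50 denotes the concentration required for 50% inhibition of growth.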 Active and inactive are the calls of the source. No stated cut-off is given here; in the data, active = GI50 up to about 1.1 µM and inactive = higher.

Experiments:
Assay in all cases: inhibition of tumour cell growth, NCI panel, 48 h
MDA-N = tested on: MDA-N
BT-549 = tested on: BT-549
DLD-1 = tested on: DLD-1
DMS-273 = tested on: DMS-273
M19-MEL = tested on: M19-MEL
DMS-114 = tested on: DMS-114
Hs-578T = tested on: Hs-578T

Compound | GI50 (MDA-N) | GI50 (BT-549) | GI50 (DLD-1) | GI50 (DMS-273) | GI50 (M19-MEL) | GI50 (DMS-114) | GI50 (Hs-578T)
CC(CC(C)[C@H]1CCC2[C@H]3C(CC[C@@]21C)[C@@]1(C)CCC(O)C[C@H]1C[C@@H]3O)C(=O)O (stereo partly drawn) | > 100 µM (inactive) | > 100 µM (inactive) | – | – | – | – | –
NCc1ccccc1C1CSCSC1 | – | – | > 100 µM (inactive) | > 100 µM (inactive) | > 100 µM (inactive) | > 100 µM (inactive) | –
c1ccc2c(c1)[nH]c1c2cc[n+]2cc3c(cc12)CCCC3 | 1.57 µM (inactive) | 2.76 µM (inactive) | – | – | – | – | 3.87 µM (inactive)
CCOC(=O)c1sc2nc(SC)nc3c2c1NCN3C | > 100 µM (inactive) | 35.7 µM (inactive) | – | – | – | – | 20.1 µM (inactive)
O=C1O[C@H](c2ccc3c(c2)OCO3)[C@H]2CO[C@@H](c3ccc4c(c3)OCO4)[C@@H]12 | > 100 µM (inactive) | > 100 µM (inactive) | – | – | – | – | > 100 µM (inactive)
COc1ccc2c(c1)CC[C@@H]1[C@@H]2CC[C@]2(C)C(=O)/C(=C/c3ccc(O)c(OC)c3)C[C@@H]12 | 57.1 µM (inactive) | – | – | – | – | – | –
CCCCCCCCC/C=C1\CC(CO)(COC(=O)c2ccccc2)OC1=O (stereo not drawn) | 16.6 µM (inactive) | 21.8 µM (inactive) | – | – | – | – | 17.3 µM (inactive)
Cc1ccc(C)c(NC(=O)C(=O)CC(=O)C2CCOC2=O)c1 (stereo not drawn) | – | – | > 100 µM (inactive) | > 100 µM (inactive) | > 100 µM (inactive) | > 100 µM (inactive) | –
NC(CCCCCP(=O)(c1ccccc1)C1C=CC=CC1)C(=O)O (stereo not drawn) | > 100 µM (inactive) | > 100 µM (inactive) | – | – | – | – | > 100 µM (inactive)
C=CCN1C(=O)/C(=C/c2ccco2)N=C1SC1OC(COC(C)=O)C(OC(C)=O)C(OC(C)=O)C1OC(C)=O (stereo not drawn) | – | > 100 µM (inactive) | – | – | – | – | –
Oc1cc(-c2ccc(Oc3ccccc3)cc2)nc2cc3c(cc12)OCO3 | – | – | > 100 µM (inactive) | > 100 µM (inactive) | > 100 µM (inactive) | > 100 µM (inactive) | –
CSc1nncc2[nH]c(C)nc12 | > 100 µM (inactive) | > 100 µM (inactive) | – | – | – | – | –
COC(=O)C1CC2CC1C1C2SC(F)(F)C1(F)F (stereo not drawn) | > 100 µM (inactive) | – | – | – | – | – | > 100 µM (inactive)
O=C(O)CCS/C(=C\C(SCCC(=O)O)c1ccc(Cl)cc1)c1ccc(Cl)cc1 (stereo not drawn) | 36.6 µM (inactive) | 30.5 µM (inactive) | – | – | – | – | 63.5 µM (inactive)
CN(C)/N=C1\CC(c2ccccc2)C(C#N)(C#N)C1(C#N)C#N (stereo not drawn) | 20.8 µM (inactive) | – | – | – | – | – | 29.7 µM (inactive)
Clc1ccc(Cc2nc3cc(Cl)c(Cl)cc3n2CC2CCCN3CCCCC23)cc1 (stereo not drawn) | 11.7 µM (inactive) | 13.1 µM (inactive) | – | – | – | – | 9.79 µM (inactive)
CN(C)/C=C/c1nnnn1-c1ccc(I)cc1 | 22.4 µM (inactive) | 22.8 µM (inactive) | – | – | – | – | 13.6 µM (inactive)
CCCCCC(/C=C/[C@@H]1CC(=O)C[C@H]1O[Si](C)(C)C(C)(C)C)OCOCCOC (stereo partly drawn) | 3.41 µM (inactive) | 3.26 µM (inactive) | – | – | – | – | 2.9 µM (inactive)
O=S(=O)(O)c1ccc2c(/N=N/c3ccc(Sc4ccc(/N=N/c5c(O)ccc6cc(S(=O)(=O)O)ccc56)cc4)cc3)c(O)ccc2c1 | > 100 µM (inactive) | > 100 µM (inactive) | – | – | – | – | > 100 µM (inactive)
COc1ccc(C(=O)N=C2N(c3ccccc3)C(=N/c3ccccc3)/C(=N\c3ccccc3)N2c2ccccc2)cc1 | 19.2 µM (inactive) | 13.2 µM (inactive) | – | – | – | – | 7.78 µM (inactive)
COC1OC(C(C)O)C2OC(C)(C)OC12 (stereo not drawn) | > 100 µM (inactive) | > 100 µM (inactive) | – | – | – | – | > 100 µM (inactive)
O=c1c2cccnc2[nH]c2ccc3cn[nH]c3c12 | > 10 µM (inactive) | > 10 µM (inactive) | – | – | – | – | 6.21 µM (inactive)
CCOC(=O)C(O)(NC(C)=O)C(F)(F)F (stereo not drawn) | > 100 µM (inactive) | > 100 µM (inactive) | – | – | – | – | > 100 µM (inactive)
CNC(=O)N(CCC#N)CCN(C(=O)NC)c1ccccc1 | > 100 µM (inactive) | > 100 µM (inactive) | – | – | – | – | –

Compound | GI50 (MDA-N) | GI50 (BT-549) | GI50 (DLD-1) | GI50 (DMS-273) | GI50 (M19-MEL) | GI50 (DMS-114) | GI50 (Hs-578T)
CCOC(=O)C(Cl)(NC(=O)OCc1ccccc1)C(F)(F)F (stereo not drawn) | > 100 µM (inactive) | – | – | – | – | – | > 100 µM (inactive)
COc1ccc(C[C@@H]2OC3(C=CC(=O)CC3Sc3ccccc3)O[C@H]2Cc2ccc(OC)cc2)cc1 (stereo partly drawn) | 1.52 µM (inactive) | 0.223 µM (active) | – | – | – | – | 1.41 µM (inactive)
[O-]/[N+](=N/c1ncc(-c2ccccc2)cn1)c1ncc(-c2ccccc2)cn1 | > 100 µM (inactive) | – | – | – | – | – | > 76.6 µM (inactive)
CC1(C)OC2OC(C(=O)c3ccccc3)C3OC(C)(C)OC3C2O1 (stereo not drawn) | > 100 µM (inactive) | > 100 µM (inactive) | – | – | – | – | > 100 µM (inactive)
Cc1ccnc(NC(=S)Nc2ccccc2Cl)c1 | > 100 µM (inactive) | > 100 µM (inactive) | – | – | – | – | 44.7 µM (inactive)
O=C(OCCN=C1c2ccccc2CCc2ccccc21)c1ccccc1 | > 100 µM (inactive) | > 100 µM (inactive) | – | – | – | – | > 100 µM (inactive)
Cc1nc2cc(/N=N/c3c(C)noc3C)ccc2[nH]1 | 16.8 µM (inactive) | 22.2 µM (inactive) | – | – | – | – | 16.5 µM (inactive)
O=C1C[C@@]23CCC4(CC2CCC[C@H]3O1)OCCO4 (stereo partly drawn) | > 100 µM (inactive) | – | – | – | – | – | > 100 µM (inactive)
CCc1nc(N)c2nc(-c3ccc(C#N)cc3)oc2n1 | > 100 µM (inactive) | > 100 µM (inactive) | – | – | – | – | > 100 µM (inactive)
Cc1ccccc1CN1CC2=C(CCN(Cc3ccccc3)C2=O)N2CCN=C12 | – | 14.8 µM (inactive) | – | – | – | – | 14.4 µM (inactive)
CC[C@@H]1CC[C@@H]2[C@H](CC[C@]3(C)[C@@H](OC(C)=O)CC[C@@H]23)[C@H]1COC(C)=O | 24.9 µM (inactive) | 32.1 µM (inactive) | – | – | – | – | 25.1 µM (inactive)
CC[C@@]12CCC(=S)N(CCSc3ccccc3)[C@@H]1c1c(n(S(=O)(=O)c3ccc(OC)cc3)c3ccccc13)CC2 | – | 48.1 µM (inactive) | – | – | – | – | > 100 µM (inactive)
COc1ccc(-c2c(C(C)=O)c(C)n(C3OC(CO)C(O)C(O)C3O)c(=S)c2C#N)cc1 (stereo not drawn) | 71.6 µM (inactive) | > 100 µM (inactive) | – | – | – | – | 98.2 µM (inactive)
CC1=C(C#N)c2nc3ccccc3n2C(=O)C1(C)CCO (stereo not drawn) | > 100 µM (inactive) | > 100 µM (inactive) | – | – | – | – | > 100 µM (inactive)
CSC1=N/C(=C\c2ccc(C)cc2)C(=O)N1CN1CCCCC1 | > 100 µM (inactive) | – | – | – | – | – | 56.5 µM (inactive)
CN1CCCOC(c2ccc([N+](=O)[O-])cc2)O1 (stereo not drawn) | > 100 µM (inactive) | > 100 µM (inactive) | – | – | – | – | –
O=C(O)CC(O)(C(=O)O)C(O)C(=O)O (stereo not drawn) | 617 µM (inactive) | > 1000 µM (inactive) | – | – | – | – | 119 µM (inactive)
O=C(/C=C/c1ccccc1O)/C=C/c1ccccc1O | 1.56 µM (inactive) | 1.24 µM (inactive) | – | – | – | – | 2.7 µM (inactive)
O=C(Nc1ccccc1)N1CC(CN2CCN(c3ccccc3)CC2)OC1=O (stereo not drawn) | > 100 µM (inactive) | > 100 µM (inactive) | – | – | – | – | 67 µM (inactive)
COC(=O)CNCC1OC2OC(C)(C)OC2C1N=[N+]=[N-] (stereo not drawn) | > 100 µM (inactive) | > 100 µM (inactive) | – | – | – | – | > 100 µM (inactive)
O=C(O)CNCCc1ccccc1 | > 100 µM (inactive) | > 100 µM (inactive) | – | – | – | – | > 100 µM (inactive)
CCOP(=O)(OCC)C(C)(CC)N/C(N)=N/C#N (stereo not drawn) | > 100 µM (inactive) | > 100 µM (inactive) | – | – | – | – | > 100 µM (inactive)
O=C1OC(c2ccco2)=N/C1=C\c1ccc(Cl)c(Cl)c1 | > 100 µM (inactive) | > 100 µM (inactive) | – | – | – | – | 36.1 µM (inactive)
